Reference: paper PMC2944806, “HLA Class I Binding of HBZ Determines Outcome in HTLV-1 Infection” (PLoS Pathogens, 2010)

Assays:
[1] = molecular target: T1, HLA class I molecule A*0201 (Homo sapiens, UniProt P04439, D140Y/D185E/D98H/E176V/E277Q/G131W/G231S/I119V/I121R/I166T/I218V/L300P/L318F/N151K/N90K/P208A/P217A/Q86G/Q94H/R138H/R169H/T345S); assay type: binding; settings: REVEAL assay, assembly of peptide-HLA complex by ELISA with conformation-dependent anti-HLA antibody, relative to positive control peptide for that allele, comparable within an allele only
T1 construct: purchased ProImmune Ltd., Oxford, UK

[2] = molecular target: T2, HLA class I molecule B*0702 (Homo sapiens, UniProt P01889); assay: REVEAL HLA-peptide binding assay, B*0702; parameters: concentration or dose not given beside the values; settings: assembly of peptide-HLA complex by ELISA with conformation-dependent anti-HLA antibody, relative to positive control peptide for that allele, comparable within an allele only
T2 construct: purchased ProImmune Ltd., Oxford, UK
Protocol: (§1) The REVEAL HLA-peptide binding assay (ProImmune Ltd., Oxford, UK) was used to quantify peptide-HLA binding. For each allele-peptide combination that was tested, assembly of peptide-HLA complexes was quantified by ELISA with a conformation-dependent anti-HLA antibody. Samples of assembling peptide-HLA complexes were taken at a defined time point and snap-frozen in liquid nitrogen prior to analysis. The assembly for each peptide-HLA complex was then compared against a positive control peptide for that allele as the percentage of assembled peptide relative to that control. We selected four HLA class I alleles and 50 HTLV-1 peptides for each allele. The allele choice was based on allele frequency in the Kagoshima database and included 2 A alleles and 2 B alleles as well as alleles for which we knew that the epitope prediction tended to be poor. The 50 HTLV-1 nonamer peptides for each allele were selected to represent a range of predicted binding affinities, from weak to strong binding peptides. They originated from 4 HTLV-1 reference strain proteins: Tax, HBZ, Gag and Polymerase.
(§2) Note the binding score is with respect to a reference good binding peptide for each allele and therefore scores can be compared within an allele but not between alleles.

[3] = molecular target: T3, HLA class I molecule A*2402 (Homo sapiens, UniProt P04439, D101N/D140Y/D185E/E176V/E190D/F33S/G103R/G107R/I119L/I121M/I306V/K335N/L105A/L180Q/L300P/N151K/N90K/Q86E/Q94H/R106L/R138H/R89G/T104I/T345S/V100E/W191G/Y123F); assay type: binding; settings: REVEAL assay, assembly of peptide-HLA complex by ELISA with conformation-dependent anti-HLA antibody, relative to positive control peptide for that allele, comparable within an allele only
T3 construct: purchased ProImmune Ltd., Oxford, UK

[4] = molecular target: HLA class I molecule B*3501 (Homo sapiens, UniProt P01889, A329T/A93T/A95T/C349S/D201E/D98Y/E176V/E187L/E204Q/E69T/I218V/K202T/L119I/Q94N/R155S/R180L/S121R/S35A/S48A/T118I/V127L/V306I/V36M/Y140S/Y91F); assay: REVEAL HLA-peptide binding assay, B*3501; settings: assembly of peptide-HLA complex by ELISA with conformation-dependent anti-HLA antibody, relative to positive control peptide for that allele, comparable within an allele only
Protocol: as §1, §2

[5] = test system: autologous B-LCL loaded with HBZ26–34 peptide; assay: Chromium release assay, peptide-loaded B-LCL; assay type: cell-based, human; settings: 1 µM HBZ 26–34 peptide, 4 h, ^51Cr release; data not shown
Protocol: PBMC from HLA A*0201^+ and HLA A*0201^− HTLV-1 infected individuals were depleted of CD8^+ cells, then enriched for CD25^+ cells using MACS beads (Miltenyi Biotech, Germany), according to manufacturer's instructions. CD25^+ cells were cultured for 16h to allow for viral antigen expression and presentation, then labelled with ^51Cr by incubating for 1h in the presence of 50–100 µCi Na2CrO4 (MP Biomedicals, USA). Labelled cells were washed extensively and placed in culture in triplicate (40,000 cells/well) in the presence of defined ratios of HBZ-1, a CTL clone which recognises HBZ 26–34 in the context of HLA A*0201 [37], alone or in the presence of 5% Triton x-100 (Sigma Aldrich). As a control, ^51Cr labelled B-LCL (autologous to the CTL clone) were cultured at the same ratios, with and without 1 µM HBZ 26–34 peptide. […] Total specific lysis was calculated using the following formula: [chromium release (test well)−chromium release (no CTL control)]/ [chromium release (Triton−100% lysis)−chromium release (no CTL control)]*100, expressed as a percentage specific lysis of total cells. […] Percentage infected cells lysed was calculated using the following formula: [Percentage total cells lysed]/[fraction of CD4^+CD25^+ cells that are infected i.e. provirus positive].

| Sequence | Score (experimentally measured binding affinity, % binding compared to control peptide) [1] [%] | Score (experimentally measured binding affinity, % binding compared to control peptide) [2] [%] | Score (experimentally measured binding affinity, % binding compared to control peptide) [3] [%] | Score (experimentally measured binding affinity, % binding compared to control peptide) [4] [%] | Lysis of peptide-loaded autologous B-LCL by the HBZ-specific CD8^+ T cell clone [5] |
| --- | --- | --- | --- | --- | --- |
| AVLDGLLSL [HTLV-1 nonamer peptide] | 92.9 | 18.76 | 1.41 | 0 |  |
| SAQWIPWRL [HTLV-1 nonamer peptide] | 24.03 | 0 | 27.07 | 14.94 |  |
| GFGQSLLFG [HTLV-1 nonamer peptide] | 0.29 | 0 | 1.06 | 0 |  |
| TFLKTAAPL [HTLV-1 nonamer peptide] |  | 28.15 | 86.12 |  |  |
| QAMRKYSPF [HTLV-1 nonamer peptide] |  | 140.22 | 56.78 | 69.18 |  |
| RICPINYSL [HTLV-1 nonamer peptide] | 71.46 | 110.59 | 77.87 |  |  |
| RVIGSALQF [HTLV-1 nonamer peptide] |  | 87.63 | 65.17 | 42.94 |  |
| LAAHHWLNF [HTLV-1 nonamer peptide] |  | 4.59 | 35.91 | 75.12 |  |
| KALMPVFTL [HTLV-1 nonamer peptide] | 79.88 | 40.22 | 8.05 | 11.5 |  |
| ASGLFRCLP [HTLV-1 nonamer peptide] | 2.99 | 2 | 4.14 | 0 |  |
| IQYSSFHSL [HTLV-1 nonamer peptide] | 93.93 | 2.94 | 87.52 |  |  |
| GLLSLEEEL [HTLV-1 nonamer peptide, HBZ26–34, recognised in the context of HLA-A*0201] | 63.68 |  |  |  | could be lysed by the CD8^+ T cell clone |
